Assay results reported in EPA's ToxRefDB 2.

Legend:
mouse = conditions: Carcinogenicity; cd1; Oral; Feed; dose end: 97 week; group: cholinesterase; cholinesterase / cholinesterase / cholinesterase / erythrocyte cholinesterase (che) + cholinesterase / cholinesterase / cholinesterase / …
rat [1] = conditions: Prenatal developmental toxicity study, Oral, Gavage/Intubation, dose end: 15 GD, group: maternal
rat [2] = conditions: Multigenerational reproductive toxicity study, Crl: CD(SD) BRVAF/Plus, Oral, [Not Specified], dose end: 2 generation
dog [3] = conditions: Subchronic oral toxicity in nonrodent, beagle, Feed, dose end: 90 day, group: cholinesterase, cholinesterase / cholinesterase / cholinesterase / plasma cholinesterase (che)
rat [4] = conditions: Combined chronic toxicity/carcinogenicity; fischer; Oral; Feed; dose end: 105 week; group: cholinesterase; cholinesterase / cholinesterase / cholinesterase / erythrocyte cholinesterase (che) + cholinesterase / cholinesterase / cholinesterase / …
dog [5] = conditions: Subchronic oral toxicity in nonrodent, beagle, Feed, dose end: 26 week
rat [6] = conditions: Fertility (Segment I); Oral; Gavage/Intubation; dose end: 1 generation; group: parental; systemic / in life observation / clinical signs / alopecia + systemic / in life observation / clinical signs / respiration (rales) + …
rat [7] = conditions: Chronic toxicity, Oral, Feed, dose end: 182 day, group: systemic
rat [8] = conditions: Fertility (Segment I), Oral, Gavage/Intubation, dose end: 1 generation, group: parental
rat [9] = conditions: Sub-acute repeat dose toxicity, wistar, Oral, Gavage/Intubation, dose end: 14 day, group: systemic
rat [10] = conditions: Sub-acute repeat dose toxicity; wistar; Oral; Feed; dose end: 14 day; group: systemic; systemic / hematology / leukocyte (wbc) count differential / leukocyte (wbc) + systemic / hematology / lymphocyte / lymphocyte + systemic / …
dog [11] = conditions: Chronic toxicity; beagle; Oral; Gavage/Intubation; dose end: 364 day; group: systemic; systemic / organ weight / liver / absolute + systemic / pathology microscopic / testes / cellular alteration + systemic / pathology …
dog [12] = conditions: Sub-acute repeat dose toxicity, beagle, Oral, Gavage/Intubation, dose end: 14 day, group: systemic
rat [13] = conditions: Chronic toxicity, wistar, Oral, Feed, dose end: 182 day, group: systemic
rabbit [14] = conditions: Prenatal developmental toxicity study, Oral, Gavage/Intubation, dose end: 19 GD
rat [15] = conditions: Prenatal developmental toxicity study, Oral, Gavage/Intubation, dose end: 18 GD
dog [16] = conditions: Chronic toxicity; beagle; Oral; Gavage/Intubation; dose end: 364 day; group: systemic; systemic / organ weight / liver / absolute + systemic / pathology microscopic / testes / cellular alteration + systemic / pathology …; remark: listed apart in the source
dog [17] = conditions: Sub-acute repeat dose toxicity; beagle; Oral; Gavage/Intubation; dose end: 4 day; group: systemic; systemic / in life observation / clinical signs / erythema + systemic / in life observation / clinical signs / reduced activity + systemic…
primate [18] = conditions: Sub-acute repeat dose toxicity, marmoset, Oral, Gavage/Intubation, dose end: 4 day, group: systemic
dog [19] = conditions: Sub-acute repeat dose toxicity; beagle; Oral; Gavage/Intubation; dose end: 4 day; group: systemic; systemic / clinical chemistry / [other] / [other] + systemic / clinical chemistry / apolipoprotein a1 / apolipoprotein a1 + systemic / …
rat [20] = conditions: Subchronic oral toxicity in rodents, wistar, Gavage/Intubation, dose end: 91 day, group: systemic
primate [21] = conditions: Subchronic oral toxicity in nonrodent, Gavage/Intubation, dose end: 91 day, group: systemic, systemic / in life observation / clinical signs / emesis
rat [22] = conditions: Sub-acute repeat dose toxicity; Oral; Gavage/Intubation; dose end: 5 day; group: systemic; systemic / in life observation / clinical signs / arrhythmia + systemic / in life observation / clinical signs / dehydration + systemic / in…
rabbit [23] = conditions: Sub-acute repeat dose toxicity, Oral, Gavage/Intubation, dose end: 5 day, group: systemic
[24] = systemic / in life observation / body weight / body weight + systemic / in life observation / food consumption / food consumption
[25] = group: offspring, systemic / in life observation / body weight / offspring (pup) weight + systemic / in life observation / body weight / offspring (pup) …
[26] = group: parental, systemic / in life observation / body weight / body weight + systemic / in life observation / body weight / body weight gain + systemic / in…
[27] = group: reproductive, reproductive / reproductive performance / implantations / implantations
[28] = group: cholinesterase, cholinesterase / cholinesterase / cholinesterase / plasma cholinesterase (che) + cholinesterase / cholinesterase / cholinesterase / …
[29] = group: systemic, systemic / hematology / erythrocyte (rbc) count differential / erythrocyte (rbc) + systemic / hematology / hemoglobin (hgb) / hemoglobin (…
[30] = systemic / clinical chemistry / albumin-globulin ratio / albumin-globulin ratio + systemic / clinical chemistry / glucose / glucose + …
[31] = systemic / pathology gross / uterus / cyst + systemic / pathology microscopic / uterus / cyst + systemic / organ weight / testes / absolute…
[32] = systemic / in life observation / body weight / body weight gain + systemic / in life observation / clinical signs / abnormal feces + …
[33] = systemic / pathology microscopic / testes / dilatation
[34] = systemic / clinical chemistry / cytochrome p450, nos / cytochrome p450, nos
[35] = systemic / clinical chemistry / cytochrome p450, nos / cytochrome p450, nos + systemic / clinical chemistry / urea nitrogen / urea nitrogen…
[36] = systemic / clinical chemistry / [other] / [other] + systemic / clinical chemistry / alanine aminotransferase (alt/sgpt) / alanine …
[37] = systemic / pathology gross / full gross necropsy / rhabdomyosarcoma + systemic / clinical chemistry / albumin-globulin ratio / albumin-…
[38] = group: developmental, systemic / in life observation / body weight / fetal weight
[39] = group: maternal, systemic / in life observation / body weight / body weight
[40] = group: developmental, developmental / developmental malformation / bone / [other] + developmental / developmental malformation / bone / delayed ossification + …
[41] = group: maternal, systemic / in life observation / body weight / body weight + systemic / in life observation / body weight / body weight gain + systemic / in…
[42] = systemic / in life observation / clinical signs / defecation (diarrhea) + systemic / pathology microscopic / salivary glands / degeneration…
[43] = systemic / pathology microscopic / salivary glands / degeneration + systemic / hematology / fibrinogen / fibrinogen + systemic / pathology …
[44] = systemic / in life observation / body weight / body weight + systemic / in life observation / clinical signs / abnormal feces + systemic / …
[45] = systemic / pathology microscopic / intestine large / hyperplasia + systemic / pathology microscopic / stomach / hyperplasia
[46] = systemic / in life observation / body weight / body weight + systemic / in life observation / clinical signs / abnormal respiratory sounds…
[47] = systemic / in life observation / clinical signs / nasal discharge + systemic / in life observation / food consumption / food consumption

CCCSP(=O)(OCC)Oc1ccc(Br)cc1Cl (stereo unspecified) [Profenofos]
LEL (mouse): 4.54 mg/kg/day | LOAEL (mouse): 4.54 mg/kg/day | NEL (mouse): 0.14 mg/kg/day | NOAEL (mouse): 0.14 mg/kg/day | LOAEL (rat [1]; [24]): 60 mg/kg/day | NEL (rat [1]; [24]): 10 mg/kg/day | NOAEL (rat [1]; [24]): 30 mg/kg/day | LEL (rat [1]; systemic / in life observation / food consumption / food consumption): 30 mg/kg/day | LEL (rat [2]; [25]): 29 mg/kg/day | LOAEL (rat [2]; [25]): 29 mg/kg/day | NEL (rat [2]; [25]): 7.3 mg/kg/day | NOAEL (rat [2]; [25]): 7.3 mg/kg/day | LEL (rat [2]; [26]): 29 mg/kg/day | LOAEL (rat [2]; [26]): 29 mg/kg/day | NEL (rat [2]; [26]): 7.3 mg/kg/day | NOAEL (rat [2]; [26]): 7.3 mg/kg/day | LEL (rat [2]; [27]): 29 mg/kg/day | LOAEL (rat [2]; [27]): > 29 mg/kg/day | NEL (rat [2]; [27]): 7.3 mg/kg/day | NOAEL (rat [2]; [27]): ≥ 29 mg/kg/day | LEL (dog [3]): 0.05 mg/kg/day | LOAEL (dog [3]): 0.05 mg/kg/day | NEL (dog [3]): < 0.05 mg/kg/day | NOAEL (dog [3]): < 0.05 mg/kg/day | LEL (rat [4]): 1 mg/kg/day | LOAEL (rat [4]): 1 mg/kg/day | NEL (rat [4]): 0.03 mg/kg/day | NOAEL (rat [4]): 0.03 mg/kg/day | NOAEL (dog [5]; group: cholinesterase, cholinesterase / cholinesterase / cholinesterase / plasma cholinesterase (che) + cholinesterase / cholinesterase / cholinesterase / brain …): 0.005 mg/kg/day | LEL (dog [5]; [28]): 0.005 mg/kg/day | LOAEL (dog [5]; [28]): 0.05 mg/kg/day | NEL (dog [5]; [28]): < 0.005 mg/kg/day | LEL (dog [5]; [29]): 12.5 mg/kg/day | LOAEL (dog [5]; [29]): > 12.5 mg/kg/day | NEL (dog [5]; [29]): 2.5 mg/kg/day | NOAEL (dog [5]; [29]): ≥ 12.5 mg/kg/day

CCc1cc(C2=C(C(=O)O)N(c3ccccc3C(F)(F)F)S(=O)(=O)c3ccccc32)cc2c1OCO2 [Fandosentan]
LEL (rat [6]): 25 mg/kg/day | LOAEL (rat [6]): > 250 mg/kg/day | NEL (rat [6]): < 25 mg/kg/day | NOAEL (rat [6]): ≥ 250 mg/kg/day | LOAEL (rat [7]; [30]): > 300 mg/kg/day | NOAEL (rat [7]; [30]): ≥ 300 mg/kg/day | LEL (rat [7]; [31]): 75 mg/kg/day | NEL (rat [7]; [31]): < 75 mg/kg/day | LOAEL (rat [8]; [32]): > 250 mg/kg/day | NOAEL (rat [8]; [32]): ≥ 250 mg/kg/day | LEL (rat [8]; [33]): 25 mg/kg/day | NEL (rat [8]; [33]): < 25 mg/kg/day | LEL (rat [9]; [34]): 100 mg/kg/day | NEL (rat [9]; [34]): < 100 mg/kg/day | LOAEL (rat [9]; [35]): > 500 mg/kg/day | NOAEL (rat [9]; [35]): ≥ 500 mg/kg/day | LEL (rat [10]): 100 mg/kg/day | LOAEL (rat [10]): > 750 mg/kg/day | NEL (rat [10]): < 100 mg/kg/day | NOAEL (rat [10]): ≥ 750 mg/kg/day | LEL (dog [11]): 10 mg/kg/day | LOAEL (dog [11]): > 100 mg/kg/day | NEL (dog [11]): < 10 mg/kg/day | NOAEL (dog [11]): ≥ 100 mg/kg/day | LOAEL (dog [12]; [36]): > 200 mg/kg/day | NOAEL (dog [12]; [36]): ≥ 200 mg/kg/day | LEL (dog [12]; systemic / in life observation / clinical signs / defecation (diarrhea) + systemic / clinical chemistry / [other] / [other] + systemic / …): 30 mg/kg/day | LOAEL (rat [13]; [37]): > 300 mg/kg/day | NOAEL (rat [13]; [37]): ≥ 300 mg/kg/day | LEL (rat [13]; [31]): 75 mg/kg/day | NEL (rat [13]; [31]): < 75 mg/kg/day | LEL (rabbit [14]; [38]): 50 mg/kg/day | LOAEL (rabbit [14]; [38]): > 50 mg/kg/day | NOAEL (rabbit [14]; [38]): ≥ 50 mg/kg/day | LEL (rabbit [14]; [39]): 50 mg/kg/day | LOAEL (rabbit [14]; [39]): > 50 mg/kg/day | NEL (rabbit [14]; [39]): 25 mg/kg/day | NOAEL (rabbit [14]; [39]): ≥ 50 mg/kg/day | LOAEL (rat [15]; [40]): > 250 mg/kg/day | NOAEL (rat [15]; [40]): ≥ 250 mg/kg/day | LEL (rat [15]; group: developmental, developmental / developmental malformation / bone / [other] + developmental / developmental malformation / face / [other] + developmental / …): 100 mg/kg/day | LEL (rat [15]; [41]): 250 mg/kg/day | LOAEL (rat [15]; [41]): > 250 mg/kg/day | NOAEL (rat [15]; [41]): ≥ 250 mg/kg/day | LEL (dog [16]): 10 mg/kg/day | LOAEL (dog [16]): > 100 mg/kg/day | NEL (dog [16]): < 10 mg/kg/day | NOAEL (dog [16]): ≥ 100 mg/kg/day

Nc1cc2c3c(c1)C(c1ccccc1)=N[C@@H](NC(=O)c1cccnc1)C(=O)N3CC2 [CI-1044]
LEL (dog [17]): 50 mg/kg/day | LOAEL (dog [17]): > 50 mg/kg/day | NEL (dog [17]): < 50 mg/kg/day | NOAEL (dog [17]): ≥ 50 mg/kg/day | LOAEL (primate [18]; [42]): > 320 mg/kg/day | NOAEL (primate [18]; [42]): ≥ 320 mg/kg/day | LEL (primate [18]; [43]): 80 mg/kg/day | NEL (primate [18]; [43]): < 80 mg/kg/day | LEL (dog [19]): 20 mg/kg/day | LOAEL (dog [19]): > 20 mg/kg/day | NEL (dog [19]): < 20 mg/kg/day | NOAEL (dog [19]): ≥ 20 mg/kg/day | LOAEL (rat [20]; [44]): > 25 mg/kg/day | NOAEL (rat [20]; [44]): ≥ 25 mg/kg/day | LEL (rat [20]; [45]): 3 mg/kg/day | NEL (rat [20]; [45]): < 3 mg/kg/day | LEL (primate [21]): 1 mg/kg/day | LOAEL (primate [21]): > 15 mg/kg/day | NEL (primate [21]): < 1 mg/kg/day | NOAEL (primate [21]): ≥ 15 mg/kg/day | LOAEL (rat [22]): > 50 mg/kg/day | NEL (rat [22]): 10 mg/kg/day | NOAEL (rat [22]): ≥ 50 mg/kg/day | LOAEL (rabbit [23]; [46]): > 1000 mg/kg/day | NOAEL (rabbit [23]; [46]): ≥ 1000 mg/kg/day | LEL (rabbit [23]; [47]): 50 mg/kg/day | NEL (rabbit [23]; [47]): < 50 mg/kg/day
